For 25 compounds, IC50 results are on record in patent publication US20240217947A1, “Morpholinylquinazoline Compound, Pharmaceutical compositions thereof and Use Thereof” (SHANGHAI YINGLI PHARMACEUTICAL CO., LTD, priority 2022, published 2024).

Common to all, as to format: biochemical
In one assay the target is PI3Kα (Homo sapiens, UniProt P42336). Briefly: PI3Kα enzyme activity inhibition IC50 evaluation assay (ADP-Glo Kinase Assay). Conditions: ATP 25 μM, PIP2 50 μg/mL, 1 hour room temperature, read-out: PI3K-α IC50. Here is the method:
(§1) Effec Example 1 IC50 evaluation assay for PI3Kα, PI3Kδ, PI3Kβ and PI3Kγ enzyme activity inhibition
(§2) The experiment was performed using the ADP-Glo Kinase Assay kit, following the instructions. The following buffer solutions were prepared: 50 mM HEPES, pH 7.5, 3 mM MgCl2, 1 mM EGTA, 100 mM NaCl, 0.03% CHAPS, 2 mM DTT. The test compound samples were dissolved in DMSO and added to the screening system at a certain starting concentration such as 10 μM, 3-fold dilution, while setting up both DMSO control and no kinase control. The optimal concentrations of PI3Kα, PI3Kδ, PI3Kβ and PI3Kγ enzymes, substrate (PIP2) and ATP were prepared in buffer. The enzyme reaction system included: buffer, ATP 25 μM, kinase substrate (PIP2, 50 μg/mL), kinases [PI3Kα (0.15 μg/mL), PI3Kδ (1.2 μg/mL), PI3Kβ (0.3 μg/mL) and PI3Kγ (2.5 μg/mL)], etc. The reaction system was reacted at room temperature for 1 hour. The reaction was terminated by adding a termination reagent (ADP-Glo reagent, 5 μL), and the ADP content in the system was detected using a detection reagent (Kinase Detection Reagent, 10 μL). Signal data were collected using the Envision instrument. Calculate the percentage of (%) inhibition according to the following formula: % inhibition=(DMSO control signal value−sample signal value)/(DMSO control signal value−no-kinase control signal value). The IC50 value was obtained by fitting the curve using the formula Y=Bottom+(Top-Bottom)/(1+(IC50/X)^HillSlope).

The target of the next assay is PI3Kδ (Homo sapiens, UniProt O00329). Briefly: PI3Kδ enzyme activity inhibition IC50 evaluation assay (ADP-Glo Kinase Assay). As to conditions: ATP 25 μM, PIP2 50 μg/mL, 1 hour room temperature, read-out: PI3K-δ IC50. As for the experimental part: as §1, §2
In a further assay the target is T1, HDAC6 (Homo sapiens, UniProt Q9UBN7).
T1 sequence (Q9UBN7 1-1215): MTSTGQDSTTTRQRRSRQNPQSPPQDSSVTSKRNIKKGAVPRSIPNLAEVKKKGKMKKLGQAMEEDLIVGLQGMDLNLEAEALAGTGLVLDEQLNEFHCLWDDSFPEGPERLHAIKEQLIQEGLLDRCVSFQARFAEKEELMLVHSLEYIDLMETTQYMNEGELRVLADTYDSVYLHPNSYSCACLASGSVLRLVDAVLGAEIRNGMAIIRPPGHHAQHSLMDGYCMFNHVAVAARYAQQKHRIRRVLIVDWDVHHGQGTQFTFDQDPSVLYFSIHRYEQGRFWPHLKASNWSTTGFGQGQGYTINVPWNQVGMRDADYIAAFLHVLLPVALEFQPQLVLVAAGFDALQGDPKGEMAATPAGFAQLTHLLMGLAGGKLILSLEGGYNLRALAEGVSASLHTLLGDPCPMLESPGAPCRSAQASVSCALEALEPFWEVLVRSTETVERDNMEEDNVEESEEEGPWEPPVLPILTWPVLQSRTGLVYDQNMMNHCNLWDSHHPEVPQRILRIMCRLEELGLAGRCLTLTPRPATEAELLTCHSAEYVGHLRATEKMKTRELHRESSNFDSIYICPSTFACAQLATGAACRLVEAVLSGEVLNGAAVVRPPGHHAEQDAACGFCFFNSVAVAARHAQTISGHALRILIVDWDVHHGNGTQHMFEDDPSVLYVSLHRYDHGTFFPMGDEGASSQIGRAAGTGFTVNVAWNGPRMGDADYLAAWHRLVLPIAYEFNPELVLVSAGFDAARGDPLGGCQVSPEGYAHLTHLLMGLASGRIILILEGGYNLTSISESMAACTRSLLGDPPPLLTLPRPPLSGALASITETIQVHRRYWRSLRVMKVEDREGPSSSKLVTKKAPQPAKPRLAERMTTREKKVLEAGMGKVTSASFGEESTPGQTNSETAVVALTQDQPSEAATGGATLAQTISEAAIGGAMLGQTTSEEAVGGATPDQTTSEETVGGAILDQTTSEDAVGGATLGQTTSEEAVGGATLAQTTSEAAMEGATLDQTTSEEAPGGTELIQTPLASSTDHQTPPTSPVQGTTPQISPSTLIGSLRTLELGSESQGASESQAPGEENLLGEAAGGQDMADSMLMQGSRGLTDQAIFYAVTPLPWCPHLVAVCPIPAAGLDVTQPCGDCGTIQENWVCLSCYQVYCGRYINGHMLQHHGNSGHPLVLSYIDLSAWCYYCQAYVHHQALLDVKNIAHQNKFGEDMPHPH
Briefly: HDAC6 enzyme activity inhibition IC50 evaluation experiment. As to conditions: HDAC6 5 nM, acetylated peptide 11 μM, trypsin, fluorescence. Here is the method: Effect Example 2 HDAC1, HDAC2, HDAC3, HDAC6 enzyme activity inhibition IC50 evaluation experiment
Buffer solution (50 mM Tris 7.5, 0.01% Tween-20, 50 mM NaCl) was prepared according to the kit instructions, and the enzyme solution and substrate solution (acetylated peptide with the addition of trypsin) were prepared using the buffer solution. The test compound samples were dissolved with DMSO and added to the screening system at a certain starting concentration such as 10 μM, 3-fold dilution, while setting up a DMSO control and no-enzyme control. The enzyme reaction system includes: buffer, enzyme [final concentration: HDAC1=10 nM, HDAC2=4 nM, HDAC3=7 nM, HDAC6=5 nM], substrate (acetylated peptide) [final concentration: Peptide(HDAC1)=8 μM, Peptide(HDAC2)=10 μM, Peptide(HDAC3)=5 μM, Peptide(HDAC6)=11 μM], trypsin [final concentration: Trypsin(HDAC1,2,3)=0.05 μM, Trypsin(HDAC6)=0.1 μM], etc. The enzymes and compounds were reacted at room temperature for 15 min. After adding the substrate and Trypsin, centrifugation was performed for 1 min, and the fluorescence signal data (excitation wavelength 355 nM/emission wavelength 460 nm) was read continuously for 60 min using Envision, and the linear reaction segment was selected to obtain the slope and thus calculate the inhibition rate at that concentration. The IC50 value was obtained by fitting the curve using the formula Y=Bottom+(Top-Bottom)/(1+(IC50/X)^HillSlope).

Sequence of PI3Kδ (O00329 whole entry, species assumed): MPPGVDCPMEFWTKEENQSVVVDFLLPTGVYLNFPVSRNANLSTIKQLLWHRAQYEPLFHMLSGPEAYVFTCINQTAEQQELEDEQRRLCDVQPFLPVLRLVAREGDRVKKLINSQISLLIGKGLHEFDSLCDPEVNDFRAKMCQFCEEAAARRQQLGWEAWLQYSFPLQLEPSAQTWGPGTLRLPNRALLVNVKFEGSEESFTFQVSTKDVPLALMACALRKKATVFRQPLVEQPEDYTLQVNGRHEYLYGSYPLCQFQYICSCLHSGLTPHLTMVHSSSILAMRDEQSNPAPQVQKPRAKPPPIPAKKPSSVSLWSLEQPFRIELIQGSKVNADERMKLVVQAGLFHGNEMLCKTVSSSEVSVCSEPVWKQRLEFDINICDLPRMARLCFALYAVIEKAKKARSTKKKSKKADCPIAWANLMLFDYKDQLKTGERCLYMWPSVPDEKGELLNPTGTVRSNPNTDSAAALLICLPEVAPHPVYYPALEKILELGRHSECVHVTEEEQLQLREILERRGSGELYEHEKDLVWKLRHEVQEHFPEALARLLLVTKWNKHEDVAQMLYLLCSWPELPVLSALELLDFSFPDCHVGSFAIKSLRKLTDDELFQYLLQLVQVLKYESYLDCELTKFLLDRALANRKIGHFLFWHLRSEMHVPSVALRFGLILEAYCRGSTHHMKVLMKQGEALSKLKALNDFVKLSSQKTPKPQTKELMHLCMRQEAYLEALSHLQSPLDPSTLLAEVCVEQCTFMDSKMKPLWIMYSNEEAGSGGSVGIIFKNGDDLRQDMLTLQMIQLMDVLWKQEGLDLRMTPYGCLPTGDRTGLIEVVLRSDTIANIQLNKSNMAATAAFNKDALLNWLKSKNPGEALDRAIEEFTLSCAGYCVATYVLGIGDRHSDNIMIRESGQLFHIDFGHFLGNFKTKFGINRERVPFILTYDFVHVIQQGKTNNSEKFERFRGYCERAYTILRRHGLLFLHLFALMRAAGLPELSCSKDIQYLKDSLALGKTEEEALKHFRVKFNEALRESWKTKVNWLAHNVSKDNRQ
Sequence of PI3Kδ (P27986 whole entry partner, species assumed): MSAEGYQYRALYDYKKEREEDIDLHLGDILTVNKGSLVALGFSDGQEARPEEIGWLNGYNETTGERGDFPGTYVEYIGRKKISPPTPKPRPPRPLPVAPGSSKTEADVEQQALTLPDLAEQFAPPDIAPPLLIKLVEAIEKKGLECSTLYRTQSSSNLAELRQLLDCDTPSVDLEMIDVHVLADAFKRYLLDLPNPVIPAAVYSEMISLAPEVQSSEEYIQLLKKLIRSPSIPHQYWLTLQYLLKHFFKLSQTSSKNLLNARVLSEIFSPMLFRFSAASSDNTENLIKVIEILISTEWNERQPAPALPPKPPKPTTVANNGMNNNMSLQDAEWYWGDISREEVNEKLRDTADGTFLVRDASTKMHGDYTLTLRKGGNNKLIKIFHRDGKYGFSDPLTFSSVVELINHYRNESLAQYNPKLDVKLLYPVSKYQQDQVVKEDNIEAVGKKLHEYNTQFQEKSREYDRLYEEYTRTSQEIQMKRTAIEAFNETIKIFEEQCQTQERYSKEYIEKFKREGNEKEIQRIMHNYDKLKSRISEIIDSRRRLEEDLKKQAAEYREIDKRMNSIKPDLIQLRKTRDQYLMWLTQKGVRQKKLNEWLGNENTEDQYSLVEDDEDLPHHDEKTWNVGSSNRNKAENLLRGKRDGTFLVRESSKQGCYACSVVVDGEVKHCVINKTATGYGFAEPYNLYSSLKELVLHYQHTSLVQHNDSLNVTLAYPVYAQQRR
Sequence of PI3Kα (P42336 whole entry, species assumed): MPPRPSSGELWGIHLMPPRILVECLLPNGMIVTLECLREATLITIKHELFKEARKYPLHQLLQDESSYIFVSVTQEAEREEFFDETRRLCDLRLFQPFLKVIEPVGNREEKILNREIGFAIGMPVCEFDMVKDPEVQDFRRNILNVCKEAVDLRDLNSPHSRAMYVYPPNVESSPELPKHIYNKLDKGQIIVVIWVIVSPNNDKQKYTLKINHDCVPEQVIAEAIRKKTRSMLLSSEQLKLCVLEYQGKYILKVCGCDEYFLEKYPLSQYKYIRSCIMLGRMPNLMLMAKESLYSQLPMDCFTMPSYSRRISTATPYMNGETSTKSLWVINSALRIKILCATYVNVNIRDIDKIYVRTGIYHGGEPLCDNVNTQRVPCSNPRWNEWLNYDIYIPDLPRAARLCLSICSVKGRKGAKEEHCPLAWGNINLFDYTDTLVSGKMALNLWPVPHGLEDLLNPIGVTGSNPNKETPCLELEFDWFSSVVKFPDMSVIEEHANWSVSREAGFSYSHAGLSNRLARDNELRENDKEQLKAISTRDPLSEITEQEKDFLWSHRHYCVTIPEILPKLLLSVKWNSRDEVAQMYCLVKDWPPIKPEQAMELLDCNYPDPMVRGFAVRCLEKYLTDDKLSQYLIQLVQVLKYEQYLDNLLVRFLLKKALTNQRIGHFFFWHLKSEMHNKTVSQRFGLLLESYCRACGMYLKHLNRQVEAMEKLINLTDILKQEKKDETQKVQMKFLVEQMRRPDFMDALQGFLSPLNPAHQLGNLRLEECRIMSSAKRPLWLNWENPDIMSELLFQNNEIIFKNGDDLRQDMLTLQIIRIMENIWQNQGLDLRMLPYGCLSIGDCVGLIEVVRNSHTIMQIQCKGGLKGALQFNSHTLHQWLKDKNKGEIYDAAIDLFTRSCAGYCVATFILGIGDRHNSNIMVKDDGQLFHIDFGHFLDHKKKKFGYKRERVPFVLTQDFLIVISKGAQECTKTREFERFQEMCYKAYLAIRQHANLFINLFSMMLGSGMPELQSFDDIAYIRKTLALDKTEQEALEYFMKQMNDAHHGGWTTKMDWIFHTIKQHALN
Sequence of PI3Kα (P27986 whole entry partner, species assumed): as the sequence (P27986 whole entry partner, species assumed) above

As for `COc1ncc(-c2nc(N3CCOCC3)nc3c(CN4CCC(C(=O)NO)CC4)cc(F)cc23)cc1NS(C)(=O)=O` [Compound 1], the 50% inhibitory concentration (IC50) on PI3Kα was 1 to 10 µM; on PI3Kδ it was 0.01 to 0.1 µM; at HDAC6, 1 to 10 µM.

Turning to `COc1ncc(-c2nc(N3CCOCC3)nc3c(CN4CCC(/C=C/C(=O)NO)CC4)cc(F)cc23)cc1NS(C)(=O)=O` [Compound 5], the IC50 on PI3Kδ was at most 0.01 µM; at HDAC6, 0.1 to 1 µM.

Take `COc1ncc(-c2nc(N3CCOCC3)nc3c(CN4CCN(CCCCC(=O)NO)CC4)cc(F)cc23)cc1NS(C)(=O)=O` [Compound 6]: the IC50 is at most 0.01 µM at PI3Kδ and 0.1 to 1 µM against HDAC6.

`COc1ncc(-c2nc(N3CCOCC3)nc3c(OCCCCCC(=O)NO)cc(F)cc23)cc1NS(C)(=O)=O` [Compound 8]: the IC50 on PI3Kα is 0.1 to 1 µM; at PI3Kδ, 0.01 to 0.1 µM; against HDAC6 it was at most 0.01 µM.

For the compound `COc1ncc(-c2nc(N3CCOCC3)nc3c(CN4CCN(Cc5ccc(C(=O)NO)cc5)CC4)cc(F)cc23)cc1NS(C)(=O)=O` [Compound 10], the concentration for half-maximal inhibition (IC50) is 0.1 to 1 µM at PI3Kα, at most 0.01 µM at PI3Kδ and 0.01 to 0.1 µM against HDAC6.

In the case of `COc1ncc(-c2nc(N3CCOCC3)nc3c(CN4CCC(OCCC(=O)NO)CC4)cc(F)cc23)cc1NS(C)(=O)=O` [Compound 11], the IC50 was 1 to 10 µM on PI3Kα, at most 0.01 µM at PI3Kδ and 0.1 to 1 µM on HDAC6.

For the compound `COc1ncc(-c2nc(N3CCOCC3)nc3c(CN4CCN(Cc5ncc(C(=O)NO)cn5)CC4)cc(F)cc23)cc1NS(C)(=O)=O` [Compound 12], the IC50 at PI3Kα is 0.1 to 1 µM; on PI3Kδ, at most 0.01 µM; against HDAC6, 0.1 to 1 µM.

On to `COc1ncc(-c2nc(N3CCOCC3)nc3c(CN4CCC(OCCCC(=O)NO)CC4)cc(F)cc23)cc1NS(C)(=O)=O` [Compound 13], for which the half-inhibitory concentration (IC50) is 1 to 10 µM at PI3Kα, at most 0.01 µM on PI3Kδ and 0.1 to 1 µM against HDAC6.

For the compound `COc1ncc(-c2nc(N3CCOCC3)nc3c(CN4CCC(N5CCC(C(=O)NO)CC5)CC4)cc(F)cc23)cc1NS(C)(=O)=O` [Compound 14], the IC50 was 1 to 10 µM on PI3Kα, 0.01 to 0.1 µM at PI3Kδ and 1 to 10 µM against HDAC6.

Turning to `COc1ncc(-c2nc(N3CCOCC3)nc3c(CN4CCC(CCCCC(=O)NO)CC4)cc(F)cc23)cc1NS(C)(=O)=O` [Compound 15], the IC50 at PI3Kα was 0.1 to 1 µM; at PI3Kδ, at most 0.01 µM; against HDAC6, 0.1 to 1 µM.

In the case of `COc1ncc(-c2nc(N3CCOCC3)nc3c(CN4CC(OCCOCC(=O)NO)C4)cc(F)cc23)cc1NS(C)(=O)=O` [Compound 16], the IC50 was in the range of 0.1 to 1 µM at PI3Kα, 0.01 to 0.1 µM at PI3Kδ and 1 to 10 µM against HDAC6.

Turning to `COc1ncc(-c2nc(N3CCOCC3)nc3c(CN4CCC(c5ccc(C(=O)NO)cc5F)CC4)cc(F)cc23)cc1NS(C)(=O)=O` [Compound 17], the IC50 at PI3Kα is 1 to 10 µM; at PI3Kδ, at most 0.01 µM; against HDAC6 it was 0.01 to 0.1 µM.

Consider `COc1ncc(-c2nc(N3CCOCC3)nc3c(CN4CCC(c5ccc(C(=O)NO)c(F)c5)CC4)cc(F)cc23)cc1NS(C)(=O)=O` [Compound 18], for which the values for the IC50 on PI3Kα, at PI3Kδ and against HDAC6 were 1 to 10 µM, at most 0.01 µM and 0.1 to 1 µM, respectively.

In the case of `COc1ncc(-c2nc(N3CCOCC3)nc3c(CN4CCC(c5c(F)cc(C(=O)NO)cc5F)CC4)cc(F)cc23)cc1NS(C)(=O)=O` [Compound 19], the half-maximal inhibitory concentration (IC50) was 1 to 10 µM at PI3Kα, at most 0.01 µM on PI3Kδ and 0.1 to 1 µM at HDAC6.

`COc1ncc(-c2nc(N3CCOCC3)nc3c(CN4CCC(c5cc(F)c(C(=O)NO)cc5F)CC4)cc(F)cc23)cc1NS(C)(=O)=O` [Compound 20]: the IC50 is 1 to 10 µM on PI3Kα, at most 0.01 µM at PI3Kδ and 0.1 to 1 µM against HDAC6.

As to `COc1ncc(-c2nc(N3CCOCC3)nc3c(CN4CCC(C(C)(C)OCC(=O)NO)CC4)cc(F)cc23)cc1NS(C)(=O)=O` [Compound 22], the IC50 was 0.1 to 1 µM on PI3Kα, at most 0.01 µM at PI3Kδ and 1 to 10 µM on HDAC6.

In the case of `COc1ncc(-c2nc(N3CCOCC3)nc3c(CN4CCC(c5ccc(C(=O)NO)cc5)CC4)cc(F)cc23)cc1NS(C)(=O)=O` [Compound 23], the figures for the 50% inhibitory concentration (IC50) at PI3Kα, at PI3Kδ and at HDAC6 were 0.1 to 1 µM, at most 0.01 µM and 0.01 to 0.1 µM, respectively.

In the case of `O=C(CCCC1CCN(Cc2cc(F)cc3c(-c4cncc(NS(=O)(=O)C5CC5)c4)nc(N4CCOCC4)nc23)CC1)NO` [Compound 27], the concentration for half-maximal inhibition (IC50) lay in the range of 1 to 10 µM on PI3Kα and 0.01 to 0.1 µM at PI3Kδ.

As for `COc1ncc(-c2nc(N3CCOCC3)nc3c(CN4CCC(c5ccc(C(=O)NO)cc5F)CC4)cc(F)cc23)cc1NS(=O)(=O)C(F)(F)F` [Compound 29], the values for the half-maximal inhibitory concentration (IC50) on PI3Kα and on PI3Kδ were 0.1 to 1 µM and at most 0.01 µM, respectively.

On to `COc1ncc(-c2nc(N3CCOCC3)nc3c(OC4CCN(c5ccc(C(=O)NO)cc5F)CC4)cc(F)cc23)cc1NS(C)(=O)=O` [Compound 31], for which the 50% inhibitory concentration (IC50) at PI3Kδ and against HDAC6 was 0.01 to 0.1 µM each time.

In the case of `COc1ncc(-c2nc(N3CCOCC3)nc3c(O[C@H]4CC[C@H](N5CCC(C(=O)NO)CC5)CC4)cc(F)cc23)cc1NS(C)(=O)=O` [Compound 32], the IC50 at PI3Kδ is at most 0.01 µM; at HDAC6, 1 to 10 µM.

For `COc1ncc(-c2nc(N3CCOCC3)nc3c(OC4CCN(Cc5ccc(C(=O)NO)cc5F)CC4)cc(F)cc23)cc1NS(C)(=O)=O` [Compound 33], the IC50 at PI3Kδ and against HDAC6 was 0.01 to 0.1 µM each time.

`COc1ncc(-c2nc(N3CCOCC3)nc3c(CN4CCN(c5ccc(C(=O)NO)cc5F)CC4)cc(F)cc23)cc1NS(C)(=O)=O` [Compound 34]: the concentration for half-maximal inhibition (IC50) at PI3Kδ and against HDAC6 was 0.01 to 0.1 µM throughout.

Regarding `COc1ncc(-c2nc(N3CCOCC3)nc3c(OCCc4ccc(C(=O)NO)cc4F)cc(F)cc23)cc1NS(C)(=O)=O` [Compound 37], the IC50 on PI3Kδ is 0.1 to 1 µM.

In the case of `COc1ncc(-c2nc(N3CCOCC3)nc3c(OCc4ccc(C(=O)NO)cc4F)cc(F)cc23)cc1NS(C)(=O)=O` [Compound 38], on PI3Kδ, the 50% inhibitory concentration (IC50) was 0.01 to 0.1 µM.
